We go through 2 compounds from paper PMC10817945, “Design of a novel analogue peptide with potent antibiofilm activities against Staphylococcus aureus based upon a sapecin B-derived peptide” (Scientific Reports, 2024).

As usually defined, the MIC is the lowest concentration found to suppress growth.

One assay concerns S. aureus. On the set-up: method as in ref 17 (Manabe et al.). Conditions: ref 17 (Manabe et al.); cited from earlier work.
In assay [1] the test system is S. aureus ATCC25923 and MRSA-1 strains. Nature of the assay: Catheter-associated biofilm infection mouse model. The conditions noted are these: Balb/c mice, 5 days; for reduction of biofilm formation on catheters (crystal-violet assay): ATCC 25923; for reduction of biofilm on catheters (crystal-violet assay): MRSA. In kind it is in vivo, Staphylococcus aureus. As to the method:
All animal experiments were performed in accordance with the protocols approved by the Animal Ethics Committee of Ahvaz Jundishapur University of Medical Sciences (Application No. IR.AJUMS.ABHC.REC.1400.014). Female Balb/c mice (Laboratory Animal Reproduction and Maintenance Center Ahvaz Jundishapur University Ahvaz, Iran) were housed one mouse per cage, under sanitary conditions at 22–25 °C and at 12 h light/dark cycles, with access to sanitized pellet food and water. Prior to each experiment, mice were acclimated to room conditions for 1 week. To increase the experimental accuracy, the cages were disinfected with a povidone-iodine solution of 10%, and the bedding materials were autoclaved, and replaced every day.
In this study, eight groups (five mice per group) of 12-week-old female Balb/c mice were obtained from the Pasture Institute of Iran (Tehran, Iran). Three groups were used to investigate the effect of three concentrations of mKLK against ATCC25923 strain, three groups for three concentrations of mKLK against MRSA, and two groups for control). Mice were anesthetized by injection of ketamine 10% and xylazine 2% (in a ratio of 3 to 1). To create a subcutaneous pocket to place three 1-cm-long polyurethane catheters, a small incision was made. Three catheters were subcutaneously implanted on the lower back of mice. Following implantation of the catheters, injection of bacterial suspension and then mKLK peptide was performed into the subcutaneous pocket. […] In addition, PBS was injected alone into animals as a control group without contamination to evaluate the sterility of the surgical procedure. The incision was closed with Vetbond. Tissue adhesive (Kimiatajhiz teb, Iran) and cleansed with 10% PI solution. After 5 days, all mice were euthanized with CO2, and the catheters were removed. Subsequently, catheter-associated biofilms were evaluated using the CFU counting method, crystal violet assay, and SEM.
The biofilm mass attached to the catheter surface was measured using a colorimetric assay (crystal violet). After removing the catheters from the mouse skin and double washing with PBS, each catheter was placed in wells of a 24-well microtiter plate, and absolute methanol was added to fix the biofilm to the catheter surface. Then, the methanol was discarded and the catheters were dried at room temperature. After staining with crystal violet 0.1% for 5 min at room temperature, the dye was discarded and the catheters were washed with PBS. Then, 33% acetic acid was added to each well to release the absorbed dye. […] To enumerate biofilm cells, catheters were removed, transferred to sterile tubes, vortexed, and sonicated. Bacterial numbers were determined by serial diluting and plating on TSA[56].

In brackets after ≈: the same amount, converted by molar mass. Non-standard residues stand in square brackets, D forms with d. Residues, ends and D or L forms follow the SMILES beside them.

For `CC(C)C[C@@H](NC(=O)[C@H](N)CCCCN)C(=O)N[C@H](CCCCN)C(=O)N[C@H](CC(C)C)C(=O)N[C@H](CC(C)C)C(=O)N[C@H](CC(C)C)C(=O)N[C@H](CC(C)C)C(=O)N[C@H](CC(C)C)C(=O)N[C@H](CCCCN)C(=O)N[C@H](CC(C)C)C(=O)N[C@H](CCCCN)C(N)=O` [KLK] (H-[dK][dL][dK][dL][dL][dL][dL][dL][dK][dL][dK]-NH2; N-terminus assumed), the MIC in the assay with S. aureus was 4 µg/mL (≈ 3.03 µM).
For `CC(C)C[C@@H](NC(=O)[C@H](N)Cc1c[nH]c2ccccc12)C(=O)N[C@H](Cc1c[nH]c2ccccc12)C(=O)N[C@H](C)C(=O)N[C@H](CC(C)C)C(=O)N[C@H](CC(C)C)C(=O)N[C@H](CCCCN)C(=O)N[C@H](CC(C)C)C(=O)N[C@H](CC(C)C)C(=O)N[C@H](CCCCN)C(=O)N[C@H](CC(C)C)C(=O)N[C@H](CCCCN)C(N)=O` [mKLK] (H-[dW][dL][dW][dA][dL][dL][dK][dL][dL][dK][dL][dK]-NH2; N-terminus assumed), the entries for the “reduction of biofilm formation on catheters (crystal-violet assay)” value in assay [1] (1/2× MIC), in assay [1] (1/4×MIC) and in assay [1] (1 × MIC) were 62%, 36% and 72%, respectively. The “reduction of biofilm on catheters (crystal-violet assay)” value was found to be 58% in assay [1] (1/2× MIC), 27% in assay [1] (1/4× MIC) and 73% in assay [1] (1× MIC).
